Reference: patent publication US8906944B2, “Compounds as tyrosine kinase modulators” (Allergan, Inc., priority 2009, dated 2014)

What was measured:
Type in all cases: biochemical
[1] = target: T1, human VEGF receptor (VEGFR-2) (Homo sapiens, UniProt P35968); experiment: VEGFR2 kinase assay; conditions: His-VEGFR-2 cytoplasmic domain, 3.6 μM ATP; Table IV, amide or urea linker; read-out: VEGFR2 Enzyme IC50
T1 construct: The cytoplasmic domain of the human VEGF receptor (VEGFR-2) was expressed; His; made in house; host or cells: insect cells (baculovirus)
Method: The cytoplasmic domain of the human VEGF receptor (VEGFR-2) was expressed as a Histidine-tagged fusion protein following infection of insect cells using an H is engineered baculovirus. […] Kinase assays were performed in 96 well microtiter plates that were coated overnight with 30 µg of poly-Glu-Tyr (4:1) in 10 mM Phosphate Buffered Saline (PBS), pH 7.2-7.4. The plates were incubated with 1% BSA and then washed four times with PBS prior to starting the reaction. Reactions were carried out in 120 µL reaction volumes containing 3.6 µM ATP in kinase buffer (50 mM Hepes buffer pH 7.4, 20 mM MgCl2, 0.1 mM MnCl2 and 0.2 mM Na3 VO4). […] Reactions were initiated by the addition 0.5 ng of purified protein. Following a ten minute incubation at 25 degree. […] IC50 values for compound inhibition were calculated directly from graphs of optical density (arbitrary units) versus compound concentration following subtraction of blank values.

VEGFR1 = VEGFR1 (Homo sapiens, UniProt P17948); experiment: VEGFR1 enzyme assay; conditions: Table IV, amide or urea linker
PDGFβ = PDGFβ (Homo sapiens, UniProt P09619); experiment: PDGFβ enzyme assay; conditions: Table IV, amide or urea linker
Sequence of PDGFβ (P09619 33-1106): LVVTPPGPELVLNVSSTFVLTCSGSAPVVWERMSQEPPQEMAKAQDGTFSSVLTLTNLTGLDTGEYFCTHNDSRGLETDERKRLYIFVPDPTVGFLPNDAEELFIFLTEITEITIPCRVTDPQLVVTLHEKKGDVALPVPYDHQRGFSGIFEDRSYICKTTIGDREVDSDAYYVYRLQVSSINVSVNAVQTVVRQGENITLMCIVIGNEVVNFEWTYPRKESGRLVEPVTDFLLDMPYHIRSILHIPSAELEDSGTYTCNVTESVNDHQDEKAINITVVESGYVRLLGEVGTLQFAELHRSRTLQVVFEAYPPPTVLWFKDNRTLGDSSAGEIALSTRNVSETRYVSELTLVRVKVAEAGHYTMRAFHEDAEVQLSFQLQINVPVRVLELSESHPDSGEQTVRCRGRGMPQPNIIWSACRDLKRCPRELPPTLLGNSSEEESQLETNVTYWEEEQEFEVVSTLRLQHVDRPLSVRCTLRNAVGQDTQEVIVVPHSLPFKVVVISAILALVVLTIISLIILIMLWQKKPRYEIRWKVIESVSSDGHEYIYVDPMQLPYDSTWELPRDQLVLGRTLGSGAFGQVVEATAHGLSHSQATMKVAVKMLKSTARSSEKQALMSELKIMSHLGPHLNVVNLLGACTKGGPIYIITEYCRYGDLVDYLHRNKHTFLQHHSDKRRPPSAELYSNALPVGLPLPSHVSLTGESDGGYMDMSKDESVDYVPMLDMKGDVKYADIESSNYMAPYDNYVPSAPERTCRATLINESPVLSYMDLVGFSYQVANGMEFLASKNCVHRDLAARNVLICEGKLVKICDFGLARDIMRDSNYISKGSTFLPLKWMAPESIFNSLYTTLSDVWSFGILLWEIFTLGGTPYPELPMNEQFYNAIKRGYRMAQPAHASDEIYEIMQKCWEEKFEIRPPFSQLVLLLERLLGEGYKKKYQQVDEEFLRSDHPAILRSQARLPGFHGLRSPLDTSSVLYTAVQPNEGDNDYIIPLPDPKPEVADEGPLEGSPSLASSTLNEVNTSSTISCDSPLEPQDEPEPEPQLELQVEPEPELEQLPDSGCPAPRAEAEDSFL

Sequence of VEGFR1 (P17948 27-1338, species assumed): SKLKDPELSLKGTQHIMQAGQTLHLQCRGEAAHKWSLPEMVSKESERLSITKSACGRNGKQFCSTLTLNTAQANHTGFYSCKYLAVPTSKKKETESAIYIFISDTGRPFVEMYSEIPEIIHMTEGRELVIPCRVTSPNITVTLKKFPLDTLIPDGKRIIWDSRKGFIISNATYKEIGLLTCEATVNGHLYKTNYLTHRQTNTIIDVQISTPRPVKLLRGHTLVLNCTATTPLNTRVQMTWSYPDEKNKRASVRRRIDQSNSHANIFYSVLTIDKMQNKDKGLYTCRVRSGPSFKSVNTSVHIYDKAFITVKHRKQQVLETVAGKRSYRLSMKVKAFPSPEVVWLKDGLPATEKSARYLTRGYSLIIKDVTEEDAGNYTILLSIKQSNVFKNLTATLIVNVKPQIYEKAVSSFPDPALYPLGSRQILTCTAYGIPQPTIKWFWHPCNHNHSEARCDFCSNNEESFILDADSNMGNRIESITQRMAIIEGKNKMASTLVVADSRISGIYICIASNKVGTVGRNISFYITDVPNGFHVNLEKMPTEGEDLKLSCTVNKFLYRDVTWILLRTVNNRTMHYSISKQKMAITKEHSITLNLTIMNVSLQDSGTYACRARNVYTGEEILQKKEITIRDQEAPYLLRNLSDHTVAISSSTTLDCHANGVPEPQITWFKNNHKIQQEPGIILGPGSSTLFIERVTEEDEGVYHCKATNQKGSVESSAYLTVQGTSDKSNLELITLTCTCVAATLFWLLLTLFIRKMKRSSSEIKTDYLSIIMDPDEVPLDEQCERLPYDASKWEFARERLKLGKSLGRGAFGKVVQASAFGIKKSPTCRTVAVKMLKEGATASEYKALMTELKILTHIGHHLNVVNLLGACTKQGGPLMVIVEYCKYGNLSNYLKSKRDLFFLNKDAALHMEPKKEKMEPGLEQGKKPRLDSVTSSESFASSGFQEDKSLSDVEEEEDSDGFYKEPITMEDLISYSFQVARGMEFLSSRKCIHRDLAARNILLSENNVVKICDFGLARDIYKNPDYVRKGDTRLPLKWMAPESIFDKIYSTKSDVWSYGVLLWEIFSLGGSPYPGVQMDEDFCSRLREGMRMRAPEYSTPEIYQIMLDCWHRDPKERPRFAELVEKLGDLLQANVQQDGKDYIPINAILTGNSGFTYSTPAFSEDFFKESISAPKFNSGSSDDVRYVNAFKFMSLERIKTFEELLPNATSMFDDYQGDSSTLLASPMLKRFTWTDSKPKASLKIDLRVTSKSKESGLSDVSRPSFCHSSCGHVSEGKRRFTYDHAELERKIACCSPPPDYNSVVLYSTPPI
T1 sequence (P35968 786-1356 limits assumed): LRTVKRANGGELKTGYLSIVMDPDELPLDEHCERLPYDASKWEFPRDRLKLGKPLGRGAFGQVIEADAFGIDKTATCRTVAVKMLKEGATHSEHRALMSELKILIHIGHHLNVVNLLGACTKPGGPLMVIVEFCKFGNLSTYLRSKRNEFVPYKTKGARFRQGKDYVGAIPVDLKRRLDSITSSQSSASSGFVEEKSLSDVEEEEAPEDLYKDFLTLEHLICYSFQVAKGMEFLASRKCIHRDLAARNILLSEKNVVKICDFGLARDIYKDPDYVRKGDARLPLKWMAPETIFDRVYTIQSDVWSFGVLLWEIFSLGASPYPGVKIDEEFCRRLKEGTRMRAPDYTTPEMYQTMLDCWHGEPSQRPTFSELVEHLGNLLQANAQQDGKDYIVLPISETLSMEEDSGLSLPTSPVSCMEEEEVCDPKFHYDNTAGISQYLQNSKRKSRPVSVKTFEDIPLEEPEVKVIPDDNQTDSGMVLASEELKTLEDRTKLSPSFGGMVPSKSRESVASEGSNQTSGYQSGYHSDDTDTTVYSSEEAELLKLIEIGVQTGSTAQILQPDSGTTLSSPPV

| SMILES | IC50 [1] | IC50 (VEGFR1) | IC50 (PDGFβ) |
| --- | --- | --- | --- |
| COC(=O)CCNC(=O)c1c[nH]c(-c2cc(Oc3cc(C(=O)Nc4cc(C)ccc4F)ccc3F)ccn2)c1 [Example 259, methyl 3-[({5-[4-(2-fluoro-5-{[(2-fluoro-5-methylphenyl)amino]carbonyl}phenoxy)pyridin-2-yl]-1H-pyrrol-3-yl}carbonyl)amino]propanoate] | 35 nM | 23 nM | 47 nM |
| Cc1ccc(F)c(NC(=O)Nc2ccc(Oc3ccnc(-c4cc(C(=O)NCCCN5CCCC5C(=O)O)c[nH]4)c3)cc2F)c1 (stereo not drawn) [Example 220, 1-(3-{[(5-{4-[3-fluoro-4-({[(2-fluoro-5-methylphenyl)amino]carbonyl}amino)phenoxy]pyridin-2-yl}-1H-pyrrol-3-yl)carbonyl]amino}propyl)pyrrolidine-2-carboxylic acid] | 13 nM | 11 nM | 23 nM |
| COC(=O)CC[C@H](NC(=O)c1c[nH]c(-c2cc(Oc3cc(C(=O)Nc4cc(C)ccc4F)ccc3F)ccn2)c1)C(=O)OC [Example 249, dimethyl 2-[({5-[4-(2-fluoro-5-{[(2-fluoro-5-methylphenyl)amino]carbonyl}phenoxy)pyridin-2-yl]-1H-pyrrol-3-yl}carbonyl)amino]pentanedioate] | 33 nM | 46 nM | 55 nM |
| Cc1ccc(F)c(NC(=O)Nc2ccc(Oc3ccnc(-c4csc(C(=O)NCCC(=O)O)c4)c3)cc2)c1 [Example 278, 3-{[(4-{4-[4-({[(2-fluoro-5-methylphenyl)amino]carbonyl}amino)phenoxy]pyridin-2-yl}-2-thienyl)carbonyl]amino}propanoic acid] | 14 nM | 15 nM | 16 nM |
| Cc1ccc(F)c(NC(=O)c2ccc(F)c(Oc3ccnc(-c4cc(C(=O)N[C@@H](CCC(=O)OC(C)(C)C)C(=O)O)c[nH]4)c3)c2)c1 [Example 257, 5-tert-butoxy-2-[({5-[4-(2-fluoro-5-{[(2-fluoro-5-methylphenyl)amino]carbonyl}phenoxy)pyridin-2-yl]-1H-pyrrol-3-yl}carbonyl)amino]-5-oxopentanoic acid] | 53 nM | 18 nM | 180 nM |
| Cc1ccc(F)c(NC(=O)Nc2ccc(Oc3ccnc(-c4cc(C(=O)NCCCNC(=O)OC(C)(C)C)c[nH]4)c3)cc2)c1 [Example 251, tert-butyl (3-{[(5-{4-[4-({[(2-fluoro-5-methylphenyl)amino]carbonyl}amino)phenoxy]pyridin-2-yl}-1H-pyrrol-3-yl)carbonyl]amino}propyl)carbamate] | 46 nM | 18 nM | 79 nM |
| Cc1ccc(F)c(NC(=O)c2ccc(F)c(Oc3ccnc(-c4cc(C(=O)NCCCN5CCOCC5)c[nH]4)c3)c2)c1 [Example 254, 5-[4-(2-fluoro-5-{[(2-fluoro-5-methylphenyl)amino]carbonyl}phenoxy)pyridin-2-yl]-N-(3-morpholin-4-ylpropyl)-1H-pyrrole-3-carboxamide] | 24 nM | 35 nM | 35 nM |
| CCNC(=O)[C@H](CCC(=O)O)NC(=O)c1c[nH]c(-c2cc(Oc3cc(C(=O)Nc4cc(C)ccc4F)ccc3F)ccn2)c1 [Example 255, 5-(ethylamino)-4-[({5-[4-(2-fluoro-5-{[(2-fluoro-5-methylphenyl)amino]carbonyl}phenoxy)pyridin-2-yl]-1H-pyrrol-3-yl}carbonyl)amino]-5-oxopentanoic acid] | 28 nM | 44 nM | 185 nM |
| Cc1ccc(F)c(NC(=O)c2ccc(F)c(Oc3ccnc(-c4cc(C(=O)NCCCN)c[nH]4)c3)c2)c1 [Example 252, N-(3-aminopropyl)-5-[4-(2-fluoro-5-{[(2-fluoro-5-methylphenyl)amino]carbonyl}phenoxy)pyridin-2-yl]-1H-pyrrole-3-carboxamide] | 24 nM | 25 nM | 99 nM |
| Cc1ccc(F)c(NC(=O)c2ccc(F)c(Oc3ccnc(-c4cc(C(=O)NCCCN5CCC(O)CC5)c[nH]4)c3)c2)c1 [Example 184, 5-[4-(2-fluoro-5-{[(2-fluoro-5-methylphenyl)amino]carbonyl}phenoxy)pyridin-2-yl]-N-[3-(4-hydroxypiperidin-1-yl)propyl]-1H-pyrrole-3-carboxamide] | 19 nM | 51 nM | 49 nM |
| Cc1ccc(F)c(NC(=O)c2ccc(F)c(Oc3ccnc(-c4cc(C(=O)NCCCN5CCCC5)c[nH]4)c3)c2)c1 [Example 187, 5-[4-(2-fluoro-5-{[(2-fluoro-5-methylphenyl)amino]carbonyl}phenoxy)pyridin-2-yl]-N-(3-pyrrolidin-1-ylpropyl)-1H-pyrrole-3-carboxamide] | 15 nM | 27 nM | 98 nM |
| CCNC(=O)CC[C@H](NC(=O)c1c[nH]c(-c2cc(Oc3cc(C(=O)Nc4cc(C)ccc4F)ccc3F)ccn2)c1)C(=O)NCC (stereo in doubt) [Example 246, N,N′-diethyl-2-[({5-[4-(2-fluoro-5-{[(2-fluoro-5-methylphenyl)amino]carbonyl}phenoxy)pyridin-2-yl]-1H-pyrrol-3-yl}carbonyl)amino]pentanediamide] | 42 nM | 62 nM | 54 nM |
| Cc1ccc(F)c(NC(=O)Nc2ccc(Oc3ccnc(-c4cc(C(=O)NCCCN(CC(=O)O)CC(=O)O)c[nH]4)c3)cc2)c1 [Example 214, 2,2′-[(3-{[(5-{4-[4-({[(2-fluoro-5-methylphenyl)amino]carbonyl}amino)phenoxy]pyridin-2-yl}-1H-pyrrol-3-yl)carbonyl]amino}propyl)imino]diacetic acid] | 22 nM | 8 nM | 23 nM |

Stronger by IC50 [1], values ahead:

| IC50 [1] | IC50 (VEGFR1) | IC50 (PDGFβ) | SMILES |
| --- | --- | --- | --- |
| 12 nM | 8 nM | 13 nM | Cc1ccc(F)c(NC(=O)Nc2ccc(Oc3ccnc(-c4cc(C(=O)NCC(=O)O)c[nH]4)c3)cc2F)c1 [Example 210, {[(5-{4-[3-fluoro-4-({[(2-fluoro-5-methylphenyl)amino]carbonyl}amino)phenoxy]pyridin-2-yl}-1H-pyrrol-3-yl)carbonyl]amino}acetic acid] |
| 11 nM | 8 nM | 9 nM | COC(=O)C1CCCN1CCCNC(=O)c1c[nH]c(-c2cc(Oc3ccc(NC(=O)Nc4cc(C)ccc4F)c(F)c3)ccn2)c1 (stereo not drawn) [Example 228, methyl 1-(3-{[(5-{4-[3-fluoro-4-({[(2-fluoro-5-methylphenyl)amino]carbonyl}amino)phenoxy]pyridin-2-yl}-1H-pyrrol-3-yl)carbonyl]amino}propyl)pyrrolidine-2-carboxylate] |
| 9 nM | 15 nM | 29 nM | Cc1ccc(F)c(NC(=O)Nc2ccc(Oc3ccnc(-c4cc(C(=O)NCCN)c[nH]4)c3)cc2F)c1 [Example 222, N-(2-aminoethyl)-5-{4-[3-fluoro-4-({[(2-fluoro-5-methylphenyl)amino]carbonyl}amino)phenoxy]pyridin-2-yl}-1H-pyrrole-3-carboxamide] |
| 9 nM | 12 nM | 17 nM | Cc1ccc(F)c(NC(=O)Nc2ccc(Oc3ccnc(-c4cc(C(=O)NCCCN5CCOC(CO)C5)c[nH]4)c3)cc2F)c1 (stereo not drawn) [Example 206, 5-{4-[3-fluoro-4-({[(2-fluoro-5-methylphenyl)amino]carbonyl}amino)phenoxy]pyridin-2-yl}-N-{3-[2-(hydroxymethyl)morpholin-4-yl]propyl}-1H-pyrrole-3-carboxamide] |
| 8 nM | 9 nM | 15 nM | Cc1ccc(F)c(NC(=O)Nc2ccc(Oc3ccnc(-c4cc(C(=O)NCCCN5CCCC(CO)C5)c[nH]4)c3)cc2F)c1 (stereo not drawn) [Example 205, 5-{4-[3-fluoro-4-({[(2-fluoro-5-methylphenyl)amino]carbonyl}amino)phenoxy]pyridin-2-yl}-N-{3-[3-(hydroxymethyl)piperidin-1-yl]propyl}-1H-pyrrole-3-carboxamide] |
| 7 nM | 10 nM | 17 nM | Cc1ccc(F)c(NC(=O)Nc2ccc(Oc3ccnc(-c4cc(C(=O)NCCCN5CCC(O)CC5)c[nH]4)c3)cc2F)c1 [Example 207, 5-{4-[3-fluoro-4-({[(2-fluoro-5-methylphenyl)amino]carbonyl}amino)phenoxy]pyridin-2-yl}-N-[3-(4-hydroxypiperidin-1-yl)propyl]-1H-pyrrole-3-carboxamide] |
| 5 nM | 7 nM | 16 nM | Cc1ccc(F)c(NC(=O)Nc2ccc(Oc3ccnc(-c4cc(C(=O)NCCc5nn[nH]n5)c[nH]4)c3)cc2)c1 [Example 150, 5-{4-[4-({[(2-fluoro-5-methylphenyl)amino]carbonyl}amino)phenoxy]pyridin-2-yl}-N-[2-(2H-tetrazol-5-yl)ethyl]-1H-pyrrole-3-carboxamide] |
| 4 nM | 6 nM | 13 nM | Cc1ccc(F)c(NC(=O)Nc2ccc(Oc3ccnc(-c4cc(C(=O)NCCCc5nn[nH]n5)c[nH]4)c3)cc2)c1 [Example 149, 5-{4-[4-({[(2-fluoro-5-methylphenyl)amino]carbonyl}amino)phenoxy]pyridin-2-yl}-N-[3-(2H-tetrazol-5-yl)propyl]-1H-pyrrole-3-carboxamide] |
